Results on 2 compounds are retold here after article PMC12592400, “A unique inhibitor conformation selectively targets the DNA polymerase PolC of Gram-positive priority pathogens” (Nature Communications, 2025).

SMILES strings stand for the structures. Values joined by “and” are separate entries in the source; they are usually repeats but may differ in a detail not shown here. Identical values can stand only once.

Data set [1] has as its system E. faecium PolC^F1276S (exonuclease-inactivated). Nature of the data set: Real-time DNA primer extension assay. The class given is biochemical, Enterococcus faecium. The settings on record: versus wild-type PolC. From the text: (§1) The genes for PolC (locus_tag: MIBBHLJO_01574) and DnaE (locus_tag: MIBBHLJO_00911) from E. faecium ATCC 700221 were codon-optimized for expression in E. coli and synthesized in vector pET28b by Twist Bioscience (San Francisco, CA). Expression constructs for variant PolC proteins were created with QuikChange Site-Directed Mutagenesis (Agilent) with oligonucleotides listed in Supplementary Table 3. F1276L, F1276S, and A1281T were introduced to assess the effect of these mutations on inhibition by ACX compounds. Mutations D972A and D974A were introduced to inactivate the polymerase activity and mutations D431A and E433A were introduced to inactivate the exonuclease activity (Fig. 1d, Supplementary Fig. 1).
(§2) Polymerase activity was monitored in real-time[31],[32] with a 42-nt long 5’ carboxyfluorescein-labelled DNA oligonucleotide template strand (DNASP8_42) annealed to a 30-nt primer oligonucleotide (oMU014). Polymerase activity in this assay is monitored by measuring fluorescence quenching of the labelled DNA template as a result of primer extension by PolC (for details see Supplementary Fig. 1b, c). Both primers were HPLC purified. Primer extension assays were performed in Reaction Buffer (see Gel-based polymerase and exonuclease assays) supplemented with 0.5 mg/mL BSA, 0.05% Tween20 and 25 uM of each dNTP (SRB) in 384-well Black Round Bottom plates (Corning 4514). The polymerase was diluted in the SRB and incubated for at least 5 min in the presence of inhibitor or solvent, with a final solvent concentration of 1%. The reaction was initiated by the addition of an equal volume of DNA substrate in SRB as described below. Fluorescence emission data was collected with a BMG Labtech PHERAstar FSX reader for 30 min at room temperature.
(§3) Compounds were dispensed with an Echo acoustic liquid handler (Beckman Coulter). All compounds were dissolved to 1 mM and 10 mM stocks in 100% DMSO and transferred to Echo LDV or PP source plates (Labcyte, Inc., CA), then dispensed to 384-well plates with a Labcyte Echo550 or Echo650 acoustic dispenser at volumes of 2.5 to 100 nL per well. […] A Mantis microfluidic liquid dispenser (Formulatrix) was used to dispense 5 µL polymerase and 5 µL substrate DNA (individually diluted in SRB) per well. […] The final concentration of DNA was 70 nM.
(§4) Data were analysed and standard error of the means (SEM) determined in Prism 8.4.2 and 10.2.3 (GraphPad). Raw time-course polymerase activity was plotted against time, with SEM of triplicates determined. The rate of activity (represented by signal quenching) was determined during the first 8 min (linear stage) by calculating the slope of fluorescence intensity change (converted to a positive value) over time (in seconds). The slopes were then normalized to percentage activity (%); per ‘replicate range’, 100% activity was defined as polymerase activity in the absence of inhibitor (polymerase control), and 0% activity was determined in the absence of polymerase (DNA signal; negative control). The SEM was determined between ‘replicate ranges’. The IC50 was determined using the dose-response (inhibition) nonlinear regression ‘[Inhibitor] vs. response (three parameters)’ without constraints.

The target of data set [2] is T1, E. faecium PolC^F1276L (exonuclease-inactivated) (Enterococcus faecium, UniProt A0A9X4B319, D429A/E431A/F1274L).
T1 sequence (A0A9X4B319 1-1450 D429A/E431A/F1274L): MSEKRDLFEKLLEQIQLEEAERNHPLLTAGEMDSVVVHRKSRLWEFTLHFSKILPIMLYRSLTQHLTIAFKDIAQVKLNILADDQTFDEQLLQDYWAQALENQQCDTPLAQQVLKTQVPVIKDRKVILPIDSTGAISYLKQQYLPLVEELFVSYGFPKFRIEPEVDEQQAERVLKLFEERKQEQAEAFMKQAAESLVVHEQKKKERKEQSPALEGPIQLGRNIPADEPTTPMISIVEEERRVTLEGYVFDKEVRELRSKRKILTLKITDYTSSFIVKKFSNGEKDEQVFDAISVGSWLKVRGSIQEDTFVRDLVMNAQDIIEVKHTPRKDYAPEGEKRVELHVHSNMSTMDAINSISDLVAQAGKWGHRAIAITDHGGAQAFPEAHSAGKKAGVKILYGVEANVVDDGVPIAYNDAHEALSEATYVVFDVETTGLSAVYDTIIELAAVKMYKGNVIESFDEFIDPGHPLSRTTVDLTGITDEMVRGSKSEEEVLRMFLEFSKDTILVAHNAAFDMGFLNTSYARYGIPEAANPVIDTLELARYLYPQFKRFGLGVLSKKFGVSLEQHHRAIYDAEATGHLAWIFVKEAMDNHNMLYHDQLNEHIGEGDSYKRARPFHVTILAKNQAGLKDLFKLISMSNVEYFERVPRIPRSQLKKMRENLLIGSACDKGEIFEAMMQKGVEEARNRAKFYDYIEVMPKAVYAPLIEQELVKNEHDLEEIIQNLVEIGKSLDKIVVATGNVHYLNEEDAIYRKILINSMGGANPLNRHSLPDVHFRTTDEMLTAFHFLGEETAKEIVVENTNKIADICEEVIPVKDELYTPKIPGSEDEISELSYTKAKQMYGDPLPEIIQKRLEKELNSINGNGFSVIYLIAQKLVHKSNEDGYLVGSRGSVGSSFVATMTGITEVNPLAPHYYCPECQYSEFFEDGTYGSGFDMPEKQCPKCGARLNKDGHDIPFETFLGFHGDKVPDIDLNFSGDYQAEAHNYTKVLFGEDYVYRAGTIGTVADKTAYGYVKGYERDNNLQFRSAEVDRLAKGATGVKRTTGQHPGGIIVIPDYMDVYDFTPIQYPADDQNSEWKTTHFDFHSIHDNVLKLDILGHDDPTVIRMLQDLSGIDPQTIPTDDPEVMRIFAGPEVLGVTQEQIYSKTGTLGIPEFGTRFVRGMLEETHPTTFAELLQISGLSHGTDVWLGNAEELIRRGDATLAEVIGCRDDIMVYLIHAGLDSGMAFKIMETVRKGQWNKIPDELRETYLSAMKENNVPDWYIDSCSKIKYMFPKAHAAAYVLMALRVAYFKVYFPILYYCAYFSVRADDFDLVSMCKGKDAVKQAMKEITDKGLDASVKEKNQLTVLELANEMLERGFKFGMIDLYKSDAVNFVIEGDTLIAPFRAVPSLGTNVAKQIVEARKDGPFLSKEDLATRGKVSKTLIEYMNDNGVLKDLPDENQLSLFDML
Nature of the data set: Real-time DNA primer extension assay. The conditions noted are these: for rate of activity (slope of fluorescence intensity change over time): Fig. 4b source data, F1276L. The class given is biochemical.
Excerpt: as §1, §2, §3, §4

Details of data set [3]: method as in PMID 35134880, PMID 32892222. The settings on record: cited from earlier work.
The conditions of data set [4]: cited from earlier work.

Take `O=c1[nH]c(NCc2ccc3c(c2)OC(F)(F)O3)nc2c(F)nn(CCO)c12` [ACX-801, 5-(((2,2-difluorobenzo[d][1,3]dioxol-5-yl)methyl)amino)-3-fluoro-1-(2-hydroxyethyl)-1,6-dihydro-7H-pyrazolo[4,3-d]pyrimidin-7-one]: in data set [1], the “increase in IC50 by the F1276S mutation” value is more than 8 fold. In data set [2], the IC50 (commonly the concentration that inhibits the measured activity by half) is more than 225 µM. Further, the “rate of activity (slope of fluorescence intensity change over time)” value is 29.6 and 27.7 and 30.1 in data set [2] (inhibitor 4 uM); 28.5 and 26.4 and 28.8 in data set [2] (inhibitor 5.75 uM); 26.7 and 28.0 and 26.2 in data set [2] (inhibitor 8.8 uM); 25.3 and 26.0 and 26.9 in data set [2] (inhibitor 20 uM); 26.3 and 26.7 and 25.0 in data set [2] (inhibitor 30 uM); 25.4 in data set [2] (inhibitor 45 uM).

`O=c1[nH]c(NCc2ccc(Cl)c(Cl)c2)nc2ncn(CCN3CCOCC3)c12` [IBZ, N^2-(3,4-dichlorobenzyl)-7-(2-[1-morpholinyl]ethyl)guanine]: the “increase in IC50 by the F1276S mutation” value in data set [1] is recorded as more than 48 fold. This compound also yielded an IC50 in data set [2] of more than 225 µM. For the same compound, the “rate of activity (slope of fluorescence intensity change over time)” value in data set [2] (inhibitor 4 uM) is 28.2 and 29.1 and 29.0; in data set [2] (inhibitor 5.75 uM), 29.9 and 30.4; in data set [2] (inhibitor 8.8 uM) it was 26.3 and 30.0; in data set [2] (inhibitor 20 uM), 26.8 and 26.3; in data set [2] (inhibitor 30 uM), 27.4 and 27.1; in data set [2] (inhibitor 45 uM), 25.1 and 26.5 and 24.8. Besides, the “rate of activity (slope of fluorescence intensity change over time)” value was 23.8 and 26.5 and 24.8 in data set [2] (inhibitor 67.5 uM); 24.9 and 23.0 and 25.8 in data set [2] (inhibitor 100 uM); 23.2 in data set [2] (inhibitor 150 uM). The solubility entry in data set [3] is on record as “low”. In addition, the absorption result in data set [4] was “poorly absorbed”. For the same compound, the faecal levels in data set [4] is more than 1000 μg/g stool.
